Measurements as given in patent US8999956B2, “N-[(het)arylalkyl)] pyrazole(thio)carboxamides and their heterosubstituted analogues” (Bayer Intellectual Property GmbH, priority 2010, dated 2015).
Where two headings read alike, the source gives them in different places.

What was measured:
Leptosphaeria nodorum = assay: In vivo preventive test on Leptosphaeria nodorum (wheat); conditions: 500 ppm of active ingredient, evaluated 7-9 days after inoculation
Method: (§1) Solvent: 49 parts by weight of N,N-dimethylacetamide Emulsifier: 1 part by weight of alkylaryl polyglycol ether To produce a suitable preparation of active compound, 1 part by weight of active compound is mixed with the stated amounts of solvent and emulsifier, and the concentrate is diluted with water to the desired concentration. To test for preventive activity, young plants are sprayed with a preparation of active compound at the stated rate of application. One day after this treatment, the plants are inoculated with an aqueous spore suspension of Leptosphaeria nodorum.

Sphaerotheca fuliginea = assay: In vivo preventive test on Sphaerotheca fuliginea (cucumber); conditions: 500 ppm of active ingredient, evaluated 7 days after inoculation
Method: Solvent: 49 parts by weight of N,N-dimethylformamide Emulsifier: 1 part by weight of Alkylarylpolyglycolether To produce a suitable preparation of active compound, 1 part by weight of active compound is mixed with the stated amounts of solvent and emulsifier, and the concentrate is diluted with water to the desired concentration. To test for preventive activity, young plants are sprayed with the preparation of active compound at the stated rate of application. One day after this treatment, the plants are inoculated with an aqueous spore suspension of Sphaerotheca fuliginea. Then the plants are placed in a greenhouse at approximately 23° C. and a relative atmospheric humidity of approximately 70%.

Alternaria solani = assay: In vivo preventive test on Alternaria solani (tomato); conditions: 500 ppm of active ingredient, evaluated 7 days after inoculation
Summary of the method: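 Young tomato plants sprayed preventively with compound in DMF/alkylarylpolyglycolether emulsion diluted in water to the stated rate. Inoculation with aqueous Alternaria solani spore suspension one day after treatment.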

Pyrenophora teres = assay: In vivo preventive test on Pyrenophora teres (barley); conditions: 500 ppm of active ingredient, evaluated 7-9 days after inoculation
Summary of the method: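 Compound formulated in N,N-dimethylformamide with alkylaryl polyglycol ether emulsifier and diluted in water, then sprayed on young barley plants at the stated application rate. Plants inoculated one day later with aqueous Pyrenophora teres spore suspension, testing preventive protection.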

[1] = test system: aflatoxines produced by Aspergillus parasiticus; assay: microbe, parasite or virus in culture; assay type: cell-based
[2] = log P by HPLC on reversed-phase column (EEC Directive 79/831 Annex V.A8); assay type: physicochemical
Method: In table 1, the log P values were determined in accordance with EEC Directive 79/831 Annex V.A8 by HPLC (High Performance Liquid Chromatography) on a reversed-phase column (C18), using the method described below: Temperature: 40° C.; […]

Aspergillus parasiticus = assay: microbe, parasite or virus in culture; assay type: cell-based
Botrytis cinerea = assay: In vivo preventive test on Botrytis cinerea (beans)
Method: Solvent: 24.5 parts by weight of acetone • 24.5 parts by weight of N,N-dimethylacetamide
Emulsifier: 1 part by weight of alkylaryl polyglycol ether
To produce a suitable preparation of active compound, 1 part by weight of active compound is mixed with the stated amounts of solvent and emulsifier, and the concentrate is diluted with water to the desired concentration.
To test for preventive activity, young plants are sprayed with the preparation of active compound. After the spray coating has dried on, 2 small pieces of agar covered with growth of Botrytis cinerea are placed on each leaf. The inoculated plants are placed in a darkened chamber at 20° C. and a relative atmospheric humidity of 100%.
2 days after the inoculation, the size of the lesions on the leaves is evaluated. 0% means an efficacy which corresponds to that of the untreated control, while an efficacy of 100% means that no disease is observed.

Puccinia triticina = assay: In vivo preventive test on Puccinia triticina (wheat)
Venturia inaequalis = assay: In vivo preventive test on Venturia inaequalis (apple scab); conditions: 100 ppm of active ingredient, evaluated 10 days after inoculation
Method: as §1, with “Solvent: 24.5 parts by weight of acetone • 24.5” for “Solvent: 49”, “with the” for “with a”, “application.” for “application. One day after this treatment, the plants are inoculated with an aqueous spore suspension of Leptosphaeria nodorum.”

Septoria tritici = assay: In vivo preventive test on Septoria tritici (wheat); conditions: 500 ppm of active ingredient, evaluated 21 days after inoculation
Method: Solvent: 49 parts by weight of N,N-dimethylacetamide Emulsifier: 1 part by weight of alkylaryl polyglycol ether To produce a suitable preparation of active compound, 1 part by weight of active compound or active compound combination is mixed with the stated amounts of solvent and emulsifier, and the concentrate is diluted with water to the desired concentration. To test for preventive activity, young plants are sprayed with the preparation of active compound or active compound combination at the stated rate of application. After the spray coating has been dried, the plants are sprayed with a spore suspension of Septoria tritici.

[3] = Table L, 500 ppm of active ingredient, lesion size 2 days after inoculation
[4] = 500 ppm of active ingredient, evaluated 8 days after inoculation
[5] = Puccinia triticina, 192 h, Table K5, dose 500 ppm, comparison with des-fluoro analogues, read-out: Efficacy
[6] = Table L5, dose 500 ppm, comparison with des-fluoro analogues
[7] = Table K, 500 ppm of active ingredient, evaluated 8 days after inoculation
[8] = 500 ppm of active ingredient, lesion size 2 days after inoculation
[9] = Table L2, dose 500 ppm, comparison with des-fluoro analogues

| Structure (SMILES) | Efficacy (Leptosphaeria nodorum) [%] | Efficacy (Sphaerotheca fuliginea) [%] | Efficacy (Alternaria solani) [%] | Efficacy (Pyrenophora teres) [%] | % Inhibition of Aflatoxin at 50 μM [1] [%] | logP [2] | other results |
| --- | --- | --- | --- | --- | --- | --- | --- |
| CC(CC1CCCCC1NC(=O)c1c(C(F)F)nn(C)c1Cl)C1CC1 (stereo not shown) [Example 328] | 80 | 100 | 95 | 95 | 100 | 4.28 | % Inhibition of fungal growth at 50 μM (Aspergillus parasiticus): 91% |
| CC(N(C(=O)c1c(C(F)F)nn(C)c1Cl)C1CC1)C(C)(C)Cc1ccccc1 (stereo not shown) [Example 10] | – | – | 90 | 95 | – | 4.27 | Efficacy (Botrytis cinerea; [3]): 85% |
| Cn1nc(C(F)F)c(C(=O)N(C[Si](C)(C)Cc2ccc(Cl)cc2Cl)C2CC2)c1F [Example 298] | 95 | 85 | 100 | 100 | 100 | 5.03 | % Inhibition of fungal growth at 50 μM (Aspergillus parasiticus): 100% |
| Cn1nc(C(F)F)c(C(=O)N(C[Si](C)(C)Cc2cccc(Cl)c2)C2CC2)c1F [Example 291] | 100 | 73 | 100 | 100 | 100 | 4.44 | % Inhibition of fungal growth at 50 μM (Aspergillus parasiticus): 100%; Efficacy (Botrytis cinerea; [3]): 100% |
| Cn1cc(C(=O)N(C2CC2)C2CCCC(c3ccccc3)C2)c(C(F)F)n1 (stereo not shown) [compound CMP3, N-cyclopropyl-3-(difluoromethyl)-1-methyl-N-(3-phenylcyclohexyl)-1H-pyrazole-4-carboxamide, reference compound] | – | – | – | – | – | – | Efficacy (Puccinia triticina; [4]): no protection; pest or weed control at 500 ppm (Puccinia triticina; [5]): 0%; Efficacy (Botrytis cinerea; [6]): 0% |
| Cn1nc(C(F)F)c(C(=S)N(C[Si](C)(C)Cc2ccccc2)C2CC2)c1F [Example 289] | 95 | 93 | 95 | 100 | – | 4.67 | Efficacy (Botrytis cinerea; [3]): 100% |
| CC(CC(C)(C)C)C1CCCCC1NC(=O)c1c(C(F)F)nn(C)c1F (single isomer, unassigned) [Example 361] | – | 91 | 95 | 95 | 100 | 4.89 isomer B | Efficacy (Puccinia triticina; [7]): 90%; Efficacy (Venturia inaequalis): 88%; % Inhibition of fungal growth at 50 μM (Aspergillus parasiticus; 50 µM): 84%; Efficacy (Septoria tritici): 100% |
| Cn1nc(C(F)F)c(C(=O)NC2(C3CCCCC3)CC2)c1F [Example 381] | – | 95 | 100 | 100 | – | 3.11 | Efficacy (Botrytis cinerea; [3]): 88% |
| CCC1(CNC(=O)c2c(C(F)F)nn(C)c2F)CCCCC1 [Example 366] | – | – | 90 | – | – | 3.55 | Efficacy (Botrytis cinerea; [3]): 84% |
| CC(CCc1c(Cl)cc(Cl)cc1Cl)N(C(=S)c1c(C(F)F)nn(C)c1F)C1CC1 (stereo not shown) [Example 219] | 90 | 100 | 95 | 100 | 81 | 5.81 | % Inhibition of fungal growth at 50 μM (Aspergillus parasiticus): 71% |
| Cc1nn(C)c(F)c1C(=O)N(C1CC1)C1CCCCC1Oc1ccccc1 (stereo not shown) [compound CMP10, N-cyclopropyl-5-fluoro-1,3-dimethyl-N-(2-phenoxycyclohexyl)-1H-pyrazole-4-carboxamide, reference compound] | – | – | – | – | – | – | Efficacy (Botrytis cinerea; [8]): less than 30%; Efficacy (Botrytis cinerea; Table L4, dose 500 ppm, comparison with des-fluoro analogue): 29% |
| CC(C)CC(C)C1CCCC1NC(=O)c1c(C(F)F)nn(C)c1F (single isomer, unassigned) [Example 318] | 70 | 93 | 90 | 100 | 100 | 4.27 isomer C | % Inhibition of fungal growth at 50 μM (Aspergillus parasiticus; 50 µM): 89% |
| Cn1nc(C(F)F)c(C(=S)N(C[Si](C)(C)Cc2ccccc2Cl)C2CC2)c1F [Example 296] | 95 | 70 | 80 | 100 | – | 5.00 | – |
| CCC(C)C(C)N(C(=O)c1c(C(F)F)nn(C)c1F)C1CC1 (mixture of isomers) [Example 302] | – | 98 | 95 | 100 | 100 | – | % Inhibition of fungal growth at 50 μM (Aspergillus parasiticus): 100%; Efficacy (Botrytis cinerea; [3]): 93% |
| Cn1cc(C(=O)N(CC2CCCCC2c2ccccc2)C2CC2)c(C(F)F)n1 (stereo not shown) [compound CMP1, N-cyclopropyl-3-(difluoromethyl)-1-methyl-N-[(2-phenylcyclohexyl)methyl]-1H-pyrazole-4-carboxamide, reference compound] | – | – | – | – | – | – | Efficacy (Botrytis cinerea; [9]): 0% |
| CC(CCc1ccc(Cl)c(Cl)c1)N(C(=O)c1c(C(F)F)nn(C)c1Cl)C1CC1 (racemic) [Example 130] | 90 | – | 95 | 95 | – | 4.62 | Efficacy (Puccinia triticina; [7]): 70% |
| Cc1nn(C)c(F)c1C(=O)N(CC1CCCCC1c1ccccc1)C1CC1 (stereo not shown) [compound CMP9, N-cyclopropyl-5-fluoro-1,3-dimethyl-N-[(2-phenylcyclohexyl)methyl]-1H-pyrazole-4-carboxamide, reference compound] | – | – | – | – | – | – | Efficacy (Botrytis cinerea; [9]): 13% |
| CC1CC(N(C(=O)c2c(C(F)F)nn(C)c2F)C2CC2)CC(C)(C)C1 (stereo not shown) [Example 322] | 90 | 90 | 90 | 100 | 100 | 4.31 | Efficacy (Puccinia triticina; [7]): 95%; % Inhibition of fungal growth at 50 μM (Aspergillus parasiticus): 99% |
| Cc1nn(C)c(F)c1C(=O)N(C1CC1)C1CCCC(c2ccccc2)C1 (stereo not shown) [compound CMP2, N-cyclopropyl-5-fluoro-1,3-dimethyl-N-(3-phenylcyclohexyl)-1H-pyrazole-4-carboxamide, reference compound] | – | – | – | – | – | – | Efficacy (Puccinia triticina; [4]): no protection; pest or weed control at 500 ppm (Puccinia triticina; [5]): 0%; Efficacy (Botrytis cinerea; [6]): 5% |
| Cn1nc(C(F)F)c(C(=O)N(C2CC2)C2CCCCC2Oc2ccccc2)c1F (stereo not shown) [Example 247] | 95 | 100 | – | 100 | – | 4.21 | Efficacy (Puccinia triticina; [7]): 100%; % Inhibition of Aflatoxin at 50 μM ([1]; 50 µM): 93%; % Inhibition of fungal growth at 50 μM (Aspergillus parasiticus; 50 µM): 78% |
| Cn1cc(C(=O)N(C2CC2)C2CCCCC2Cc2ccccc2)c(C(F)F)n1 (stereo not shown) [16 from WO-2010/094666, N-(2-benzylcyclohexyl)-N-cyclopropyl-3-(difluoromethyl)-1-methyl-1H-pyrazole-4-carboxamide, reference compound] | – | – | – | – | – | – | Efficacy (Puccinia triticina; 100 ppm of active ingredient, evaluated 8 days after inoculation, listed as example 16 disclosed in patent application WO-2010/094666): no protection; pest or weed control at 100 ppm (Puccinia triticina; Puccinia triticina, 192 h, 100 ppm of active ingredient, evaluated 8 days after inoculation, read-out: Efficacy): 0%; pest or weed control at 500 ppm (Puccinia triticina; Puccinia triticina, 192 h, 500 ppm of active ingredient, evaluated 8 days after inoculation, read-out: Efficacy): < 60%; Efficacy (Botrytis cinerea; [8]): 29%; Efficacy (Botrytis cinerea; 500 ppm of active ingredient, lesion size 2 days after inoculation, listed as example 16 disclosed in patent application WO-2010/094666): less than 30% |
